We go through two compounds from patent US4579730A (Hadassah Medical Organization, priority 1983, dated 1986).

Test [1] can be described thus: Function of sodium cholate as bile acid carrier of insulin and protease inhibitor agent.
Another test concerns diabetic dog. As to the kind of experiment: Glucose levels in a diabetic dog after administration of insulin (oral enterocoated capsule; intramuscular comparison). The test is classed as in vivo. Particulars: 0.5 u/kg intramuscular injection.
The next test relates to blood glucose levels. Particulars: insulin mixed with bile salts, through the rectum, dose of 48 μ/kg; cited from earlier work.

Regarding `C[C@H](CCC(=O)[O-])[C@H]1CC[C@H]2[C@@H]3[C@H](O)C[C@@H]4C[C@H](O)CC[C@]4(C)[C@H]3C[C@H](O)[C@]12C.[Na+]` [sodium cholate], the “function as bile acid carrier of the insulin and protease inhibitor agent” value in test [1] is “can simultaneously function both as the bile acid carrier of the insulin and the protease inhibitor agent”.
For the compound Insulin, the Glucose in the test on diabetic dog (0 min) is listed as 28.7 mm; in the test on diabetic dog (10 min), 23.3 mm; with diabetic dog (20 min) it was 21.5 mm; in the test on diabetic dog (30 min), 19.9 mm; in the test with diabetic dog (45 min) it was 15.6 mm; with diabetic dog (60 min) it was 12.9 mm. Further, the Glucose with diabetic dog (75 min) came out at 10.9 mm; in the test on diabetic dog (90 min) it was 8.5 mm; in the test with diabetic dog (120 min), 6.5 mm; in the test with diabetic dog (150 min), 6.4 mm; in the test with diabetic dog (180 min), 6.5 mm. Further, the “reduction of blood glucose levels” value in the test with blood glucose levels is on record as “approximately 50%”.
